Results taken from patent US5019582A, “Piperidine compounds and their preparation and use” (Novo Nordisk A/S, priority 1986, dated 1991).
Converted amounts (≈) assume the structure as drawn. Where a name gives a salt, the structure may show the parent alone.

System: voltage operated calcium channels
Experiment: inhibition of depolarization-stimulated 45Ca uptake into brain synaptosomes
Assay type: biochemical, male Wistar rat
Details: inhibition of K+-stimulated 45Ca uptake, rat cerebral cortex synaptosomes (P2), 15 s incubation
Excerpt: The pharmacological properties of the compounds of the invention can be illustrated by determining their capability to inhibit calcium uptake into brain synaptosomes.
Depolarization of neuronal membranes leads to an opening of socalled `voltage operated calcium channels` (VOC) in the membranes which allows a massive influx of calcium from the extracellular space. A crude synaptosomal preparation (socalled P2 fraction) contains small vesicles surrounded by neuronal membrane and it is possible in such a preparation to study a depolarization-induced opening of VOC.
A male Wistar rat is decapitated and the cerebral cortex removed and homogenized in 20 ml. of ice-cold 0.32 M sucrose using a glass homogenizer with a teflon pestle. All subsequent steps for isolation of synaptosomes are done at 0°-4° C. The homogenate is centrifuged at 1000×g for 10 min and the resulting supernatant is re-centrifuged at 18000×g for 20 min. This pellet (P2) is resuspended in 0.32 M sucrose (10 ml per g of original tissue) with a teflon pestle.
The tubes are pre-incubated for 30 min on ice and then for 6 min at 37° C. in a water bath.
The incubation is continued for 15 s.
The amount of radioactivity on the filter disc is determined by liquid scintillation spectrometry.
Test substances are dissolved in 10 ml of 48% ethanol at a concentration of 0.44 mg/ml. Dilutions are made in 48% ethanol to give final concentrations of 0.1, 0.3, 1, 3 and 0 10 μg/ml. Experiments are performed in duplicate. Controls for depolarized and nondepolarized samples are included in the assay and test substances are only tested in depolarized samples.
The IC50 value is estimated from dose response curves.
Work on CCCCCCCCN1CC[C@@H](c2ccc(F)cc2)[C@H](COc2ccc3c(c2)OCO3)C1 (single isomer, unassigned) [(-)-trans-4-(-4-fluoropheny1)-3-(3,4-methylenedioxyphenoxymethyl)-1-octylpiperidine hydrochloride] yielded an IC50 of 2.2 µg/mL. Compound CCCCCN1CC[C@@H](c2ccc(F)cc2)[C@H](COc2ccc3c(c2)CCCC3)C1 (single isomer, unassigned) has an IC50 of 0.4 µg/mL (≈ 0.977 µM). For CCCCCN1CC[C@@H](c2ccccc2)[C@H](COc2ccc3c(c2)OCO3)C1 (single isomer, unassigned), the IC50 was 2.4 µg/mL (≈ 6.29 µM). Work on CCCCCN1CC[C@@H](c2ccc(F)cc2)[C@H](COc2ccc3c(c2)OCO3)C1 (single isomer, unassigned) yielded an IC50 of 1.5 µg/mL (≈ 3.75 µM). Compound CCN1CC[C@@H](c2ccc(F)cc2)[C@H](COc2ccc(C(C)(C)C)cc2)C1.Cl (relative stereo) [trans-1-ethyl-4-(4-fluorophenyl)-3-(4-t-butylphenoxymethyl)piperidine hydrochloride] has an IC50 of 2.5 µg/mL. CCCCN1CC[C@@H](c2ccc(F)cc2)[C@H](COc2ccc3c(c2)OCO3)C1 (single isomer, unassigned) showed an IC50 of 1.9 µg/mL (≈ 4.93 µM). C=CCN1CC[C@@H](c2ccc(F)cc2)[C@H](COc2ccc3c(c2)OCO3)C1 (single isomer, unassigned) [(-)--trans-4-(-4-fluorophenyl)-3-(3,4-methylenedioxyphenoxymethyl)-1-allyl-piperidine hydrochloride] gave an IC50 of 0.8 µg/mL. With CCCCN1CC[C@@H](c2ccc(F)cc2)[C@H](COc2ccc(OC)cc2)C1 (single isomer, unassigned) the IC50 was 2.3 µg/mL (≈ 6.19 µM). Work on COc1ccc(OC[C@@H]2CN(C(C)C)CC[C@H]2c2ccc(F)cc2)cc1.Cl (single isomer, unassigned) [(-)-trans-1-isopropyl-4-(4-fluorophenyl)-3-(4-methoxyphenoxymethyl)-piperidine hydrochloride] yielded an IC50 of 4.3 µg/mL.

System: peripheral calcium uptake, e.g. in blood vessels and the heart
Experiment: not given
Details: cited from earlier work
For COc1ccc(CCN(C)CCCC(C#N)(c2ccc(OC)c(OC)c2)C(C)C)cc1OC (stereo not drawn) [Verapamil], the “activity against peripheral calcium uptake” value is given as “have activity”. In the case of COC(=O)C1=C(C)NC(C)=C(C(=O)OC)C1c1ccccc1[N+](=O)[O-] [Nifedipin], the “activity against peripheral calcium uptake” value is listed as “have activity”. For COc1ccc([C@@H]2Sc3ccccc3N(CCN(C)C)C(=O)[C@@H]2OC(C)=O)cc1 [Diltiazem], the “activity against peripheral calcium uptake” value is given as “have activity”.
